How the values were obtained:
[1] = system: SNB-19; assay: Growth inhibition of human SNB19 cells assessed as cell growth at 0.1 uM incubated for 48 hrs by sulforhodamine B assay relative to control; format: functional; details: SNB-19, 48 h, read-out: Activity
[2] = system: SNB-75; assay: Growth inhibition of human SNB75 cells assessed as cell growth at 1 uM incubated for 48 hrs by sulforhodamine B assay relative to control; format: functional; details: SNB-75, 48 h, read-out: Activity
[3] = system: SK-OV-3; assay: Growth inhibition of human SKOV3 cells assessed as cell growth at 0.1 uM incubated for 48 hrs by sulforhodamine B assay relative to control; format: functional; details: SK-OV-3, 48 h, read-out: Activity
[4] = system: SN12C; assay: Growth inhibition of human SN12C cells assessed as cell growth at 0.01 uM incubated for 48 hrs by sulforhodamine B assay relative to control; format: functional; details: read-out: Activity
[5] = system: SK-MEL-2; assay: Growth inhibition of human SK-MEL-2 cells assessed as cell growth at 0.1 uM incubated for 48 hrs by sulforhodamine B assay relative to control; format: functional; details: SK-MEL-2, 48 h, read-out: Activity
[6] = system: UACC-62; assay: Growth inhibition of human UACC62 cells assessed as cell growth at 0.01 uM incubated for 48 hrs by sulforhodamine B assay relative to control; format: functional; details: UACC-62, 48 h, read-out: Activity
[7] = system: BT-549; assay: Growth inhibition of human BT549 cells assessed as cell growth at 100 uM incubated for 48 hrs by sulforhodamine B assay relative to control; format: functional; details: BT-549, 48 h, read-out: Activity
[8] = system: A549; assay: Growth inhibition of human A549/ATCC cells assessed as cell growth at 100 uM incubated for 48 hrs by sulforhodamine B assay relative to control; format: functional; details: A549, 48 h, read-out: Activity
[9] = system: NCI/ADR-RES; assay: Growth inhibition of human NCI/ADR-RES cells assessed as cell growth at 0.1 uM incubated for 48 hrs by sulforhodamine B assay relative to control; format: functional; details: read-out: Activity
[10] = system: RXF 393; assay: Growth inhibition of human RXF393 cells assessed as cell growth at 0.1 uM incubated for 48 hrs by sulforhodamine B assay relative to control; format: functional; details: RXF 393, 48 h, read-out: Activity
[11] = system: NCI-H322M; assay: Growth inhibition of human NCI-H322M cells assessed as cell growth at 0.1 uM incubated for 48 hrs by sulforhodamine B assay relative to control; format: functional; details: read-out: Activity
[12] = system: SF-268; assay: Growth inhibition of human SF268 cells assessed as cell growth at 100 uM incubated for 48 hrs by sulforhodamine B assay relative to control; format: functional; details: SF-268, 48 h, read-out: Activity
[13] = system: KM12; assay: Growth inhibition of human KM12 cells assessed as cell growth at 0.1 uM incubated for 48 hrs by sulforhodamine B assay relative to control; format: functional; details: KM12, 48 h, read-out: Activity
[14] = system: T47D; assay: Growth inhibition of human T47D cells assessed as cell growth at 0.1 uM incubated for 48 hrs by sulforhodamine B assay relative to control; format: functional; details: read-out: Activity
[15] = system: HCC 2998; assay: Growth inhibition of human HCC2998 cells incubated for 48 hrs by sulforhodamine B assay; format: functional, cell-based; details: HCC 2998, 48 h
[16] = system: SF-539; assay: Growth inhibition of human SF539 cells assessed as cell growth at 0.1 uM incubated for 48 hrs by sulforhodamine B assay relative to control; format: functional; details: SF-539, 48 h, read-out: Activity
[17] = system: RXF 393; assay: Growth inhibition of human RXF393 cells incubated for 48 hrs by sulforhodamine B assay; format: functional, cell-based; details: RXF 393, 48 h
[18] = system: ACHN; assay: Growth inhibition of human ACHN cells assessed as cell growth at 100 uM incubated for 48 hrs by sulforhodamine B assay relative to control; format: functional; details: read-out: Activity
[19] = system: NCI-H522; assay: Growth inhibition of human NCI-H522 cells assessed as cell growth at 0.1 uM incubated for 48 hrs by sulforhodamine B assay relative to control; format: functional; details: NCI-H522, 48 h, read-out: Activity
[20] = system: NCI-H226; assay: Growth inhibition of human NCI-H226 cells assessed as cell growth at 100 uM incubated for 48 hrs by sulforhodamine B assay relative to control; format: functional; details: NCI-H226, 48 h, read-out: Activity
[21] = system: SNB-19; assay: Growth inhibition of human SNB19 cells incubated for 48 hrs by sulforhodamine B assay; format: functional, cell-based; details: SNB-19, 48 h
[22] = system: Hs-578T; assay: Growth inhibition of human Hs578T cells assessed as cell growth at 1 uM incubated for 48 hrs by sulforhodamine B assay relative to control; format: functional; details: read-out: Activity
[23] = system: UACC-257; assay: Growth inhibition of human UACC257 cells incubated for 48 hrs by sulforhodamine B assay; format: functional, cell-based; details: UACC-257, 48 h
[24] = system: HCT-116; assay: Growth inhibition of human HCT116 cells assessed as cell growth at 0.1 uM incubated for 48 hrs by sulforhodamine B assay relative to control; format: functional; details: HCT-116, 48 h, read-out: Activity
[25] = system: UO-31; assay: Growth inhibition of human UO31 cells incubated for 48 hrs by sulforhodamine B assay; format: functional, cell-based; details: UO-31, 48 h
[26] = system: U-251; assay: Growth inhibition of human U251 cells assessed as cell growth at 100 uM incubated for 48 hrs by sulforhodamine B assay relative to control; format: functional; details: U-251, 48 h, read-out: Activity
[27] = system: HL-60(TB); assay: Growth inhibition of human HL-60(TB) cells incubated for 48 hrs by sulforhodamine B assay; format: functional, cell-based; details: HL-60, 48 h
[28] = system: RPMI-8226; assay: Growth inhibition of human RPMI8226 cells assessed as cell growth at 0.1 uM incubated for 48 hrs by sulforhodamine B assay relative to control; format: functional; details: RPMI-8226, 48 h, read-out: Activity
[29] = system: CCRF-CEM; assay: Growth inhibition of human CCRF-CEM cells assessed as cell growth at 100 uM incubated for 48 hrs by sulforhodamine B assay relative to control; format: functional; details: read-out: Activity
[30] = read-out: LC50 (the source's name)
[31] = read-out: pLC50 (the source's name) (converted)

Compound: O=C(Nc1cccc(-n2cc(-c3ccncc3)c(-c3cc(O)cc(Cl)c3)n2)c1)Nc1ccc(Cl)c(Cl)c1
- growth at 0.1 µM [1]: 95%
- growth at 1 µM [2]: 63%
- growth at 0.1 µM [3]: 103%
- growth at 0.01 µM [4]: 100%
- growth at 0.1 µM [5]: 96%
- growth at 0.01 µM [6]: 96%
- growth at 100 µM [7]: -38%
- growth at 100 µM [8]: -32%
- growth at 0.1 µM [9]: 105%
- growth at 0.1 µM [10]: 85%
- growth at 0.1 µM [11]: 88%
- growth at 100 µM [12]: -11%
- growth at 0.1 µM [13]: 100%
- growth at 0.1 µM [14]: 88%
- GI50 ([15]; read-out: GI50): 2.93 µM
- CC50 [15, 30]: 7.51 µM
- TGI ([15]; read-out: TGI): 89.9 µM
- GI50 ([15]; read-out: pGI50 (converted)): 2.95 µM
- CC50 [15, 31]: 77.6 µM
- TGI ([15]; read-out: pTGI (converted)): 8.91 µM
- growth at 0.1 µM [16]: 95%
- LC50 [17]: 8.13 µM
- GI50 ([17]; read-out: GI50): 0.556 µM
- TGI ([17]; read-out: TGI): 24.6 µM
- GI50 ([17]; read-out: pGI50 (converted)): 0.55 µM
- TGI ([17]; read-out: pTGI (converted)): 2.45 µM
- growth at 100 µM [18]: -33%
- growth at 0.1 µM [19]: 92%
- growth at 100 µM [20]: -41%
- GI50 ([21]; read-out: GI50): 3.38 µM
- CC50 [21, 30]: > 100 µM
- TGI ([21]; read-out: TGI): 19 µM
- GI50 ([21]; read-out: pGI50 (converted)): 3.16 µM
- CC50 [21, 31]: > 100 µM
- TGI ([21]; read-out: pTGI (converted)): 19.1 µM
- growth at 1 µM [22]: 57%
- GI50 ([23]; read-out: GI50): 1.96 µM
- CC50 [23, 30]: 9.5 µM
- TGI ([23]; read-out: TGI): 43 µM
- GI50 ([23]; read-out: pGI50 (converted)): 1.95 µM
- CC50 [23, 31]: 9.55 µM
- TGI ([23]; read-out: pTGI (converted)): 4.27 µM
- growth at 0.1 µM [24]: 102%
- IC50 [25]: 1.91 µM
- GI50 ([25]; read-out: GI50): 1.91 µM
- CC50 [25, 30]: > 100 µM
- TGI ([25]; read-out: TGI): 65.1 µM
- GI50 ([25]; read-out: pGI50 (converted)): 1.91 µM
- CC50 [25, 31]: > 100 µM
- TGI ([25]; read-out: pTGI (converted)): 6.46 µM
- growth at 100 µM [26]: -57%
- GI50 ([27]; read-out: GI50): 3.02 µM
- LC50 ([27]; read-out: LC50): > 100 µM
- GI50 ([27]; read-out: pGI50 (converted)): 3.02 µM
- LC50 ([27]; read-out: pLC50 (converted)): > 100 µM
- growth at 0.1 µM [28]: 103%

Compound: O=C(Nc1cccc(-n2cc(-c3ccncc3)c(-c3cc(O)cc(Cl)c3)n2)c1)c1cc(C(F)(F)F)cc(C(F)(F)F)c1
- growth at 0.1 µM [1]: 97%
- growth at 1 µM [2]: 72%
- growth at 0.1 µM [3]: 98%
- growth at 0.01 µM [4]: 97%
- growth at 0.1 µM [5]: 93%
- growth at 0.01 µM [6]: 90%
- growth at 100 µM [7]: -12%
- growth at 100 µM [8]: 4%
- growth at 0.1 µM [9]: 100%
- growth at 0.1 µM [10]: 94%
- growth at 0.1 µM [11]: 90%
- growth at 100 µM [12]: 31%
- growth at 100 µM [29]: 1%
- growth at 0.1 µM [13]: 97%
- growth at 0.1 µM [14]: 93%
- GI50 ([15]; read-out: GI50): 3.12 µM
- CC50 [15, 30]: > 100 µM
- TGI ([15]; read-out: TGI): 11.6 µM
- GI50 ([15]; read-out: pGI50 (converted)): 3.09 µM
- CC50 [15, 31]: > 100 µM
- TGI ([15]; read-out: pTGI (converted)): 11.7 µM
- growth at 0.1 µM [16]: 91%
- LC50 [17]: 24.5 µM
- GI50 ([17]; read-out: GI50): 1.59 µM
- TGI ([17]; read-out: TGI): 43.6 µM
- GI50 ([17]; read-out: pGI50 (converted)): 1.7 µM
- TGI ([17]; read-out: pTGI (converted)): 4.37 µM
- growth at 100 µM [18]: 19%
- growth at 0.1 µM [19]: 30%
- growth at 100 µM [20]: 19%
- GI50 ([21]; read-out: GI50): 7.03 µM
- CC50 [21, 30]: > 100 µM
- TGI ([21]; read-out: TGI): > 100 µM
- GI50 ([21]; read-out: pGI50 (converted)): 7.08 µM
- CC50 [21, 31]: > 100 µM
- TGI ([21]; read-out: pTGI (converted)): > 100 µM
- growth at 1 µM [22]: 92%
- GI50 ([23]; read-out: GI50): 4.23 µM
- CC50 [23, 30]: > 100 µM
- TGI ([23]; read-out: TGI): 51.2 µM
- GI50 ([23]; read-out: pGI50 (converted)): 4.27 µM
- CC50 [23, 31]: > 100 µM
- TGI ([23]; read-out: pTGI (converted)): 51.3 µM
- growth at 0.1 µM [24]: 100%
- IC50 [25]: 2.5 µM
- GI50 ([25]; read-out: GI50): 2.5 µM
- CC50 [25, 30]: > 100 µM
- TGI ([25]; read-out: TGI): > 100 µM
- GI50 ([25]; read-out: pGI50 (converted)): 2.51 µM
- CC50 [25, 31]: > 100 µM
- TGI ([25]; read-out: pTGI (converted)): > 100 µM
- growth at 100 µM [26]: -28%
- growth at 0.1 µM [28]: 105%
